Test results published in PMC7828447, “Design, Synthesis and Biological Evaluation of Arylpyridin-2-yl Guanidine Derivatives and Cyclic Mimetics as Novel MSK1 Inhibitors. An Application in an Asthma Model” (Molecules, 2021).
Where a name gives a salt, the structure may show the parent alone. Read-outs that look alike come from different tables or passages of the source.

Experiments:
[1] = target: T1, human synthetic MSK1 (14-438-K, Millipore) (Homo sapiens, UniProt O75582); assay: MSK1 enzymatic inhibition assay (Kinase-Glo luminescence); format: biochemical; conditions: for inhibition at 1 µM: read-out: MSK1 % Inhibition 1 µM; for inhibition at 10 µM: read-out: MSK1 % Inhibition 10 µM; for MSK1 inhibitory activity (in words): tested at 1 and 10 µM; for IC50: 8 concentrations 0.03-100 µM
T1 construct: purchased Millipore 14-438-K
Description: All results are summarized in Table 1, Table 2, Table 3, Table 4 and Table 5 and on Figure 4. […]
An orthogonal luminescence-based assay Kinase-Glo® (Promega, Madison, WI, USA) was used to validate the hits, quantifying the amount of the remaining ATP in the solution following the kinase reaction. Enzymatic reactions were performed up to 4h at room temperature in presence of 3 µM ATP. All compounds were tested in quadruplicates at 1 µM and 10 µM. […] Luminescence was measured with EnVision Plate Reader (Perkin Elmer).

[2] = compound at 1 µM, ± Standard Deviation (n = 4)
[3] = compound at 10 µM, ± Standard Deviation (n = 4)
[4] = ± Standard Deviation (n = 4), read-out: MSK1 IC50
[5] = MSK1 IC50, ± Standard Deviation (n = 4)

T1 sequence (O75582 whole entry): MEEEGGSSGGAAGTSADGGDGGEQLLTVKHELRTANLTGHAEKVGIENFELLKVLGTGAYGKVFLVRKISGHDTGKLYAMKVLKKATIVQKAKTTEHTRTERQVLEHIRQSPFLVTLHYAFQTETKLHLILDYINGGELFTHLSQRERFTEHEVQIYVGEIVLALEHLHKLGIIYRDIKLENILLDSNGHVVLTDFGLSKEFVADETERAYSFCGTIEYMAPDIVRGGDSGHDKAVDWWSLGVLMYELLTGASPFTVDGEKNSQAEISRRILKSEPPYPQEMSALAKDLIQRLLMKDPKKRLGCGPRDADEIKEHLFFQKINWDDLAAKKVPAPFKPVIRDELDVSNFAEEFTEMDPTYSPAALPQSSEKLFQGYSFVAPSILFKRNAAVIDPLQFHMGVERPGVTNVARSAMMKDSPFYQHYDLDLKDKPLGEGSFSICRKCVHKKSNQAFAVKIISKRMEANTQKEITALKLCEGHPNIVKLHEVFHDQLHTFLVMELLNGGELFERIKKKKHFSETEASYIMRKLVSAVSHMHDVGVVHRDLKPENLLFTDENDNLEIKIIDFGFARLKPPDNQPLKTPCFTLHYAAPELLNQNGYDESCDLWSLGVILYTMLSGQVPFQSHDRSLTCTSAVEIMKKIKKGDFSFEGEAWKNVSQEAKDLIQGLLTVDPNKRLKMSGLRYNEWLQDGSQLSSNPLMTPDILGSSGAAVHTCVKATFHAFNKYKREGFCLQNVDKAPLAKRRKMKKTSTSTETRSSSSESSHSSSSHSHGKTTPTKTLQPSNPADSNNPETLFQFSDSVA

Br.Nc1nc2c(-c3ccc(Cl)cc3)cccc2[nH]1 [Compound 49b, 4-(4-Chlorophenyl)-1H-benzo[d]imidazol-2-amine Hydrobromide]
inhibition at 1 µM [1, 2]: -3 ± 6% | inhibition at 10 µM [1, 3]: 49 ± 9% | melting point: 254 to 256 °C

COc1ccc(-c2cccc3c2CNC(N)=N3)cc1 [Compound 37c, 5-(4-Methoxyphenyl)-3,4-dihydroquinazolin-2-amine Hydrobromide]
inhibition at 1 µM [1, 2]: -7 ± 4% | inhibition at 10 µM [1, 3]: -5 ± 5%

6-Phenyl-3,4-dihydrobenzodiazepin-2-amine Hydrochloride [Compound 57]
MSK1 % Inhibition 1 µM [1, 2]: 8±6% | MSK1 % Inhibition 10 µM [1, 3]: 12±6% | MSK1 inhibitory activity (in words) [1]: inactive

N=C(N)Nc1cccc(-c2cc3ccccc3o2)n1.O=C(O)C(F)(F)F [Compound 1h, 1-[6-(1-Benzofuran-2-yl)pyridin-2-yl] guanidinium trifluoroacetate]
inhibition at 10 µM [1, 3]: 1 ± 6% | MSK1 inhibitory activity (in words) [1]: totally inactive | melting point: 269 to 270 °C

COc1ccc(-c2cccc(NC(=N)N)n2)cc1 [Compound 1d]
inhibition at 1 µM [1, 2]: -5 ± 3% | inhibition at 10 µM [1, 3]: -3 ± 4% | MSK1 inhibitory activity (in words) [1]: inactive

Br.NC1=Nc2cccc(-c3ccc(Cl)cc3)c2CN1 [Compound 37b, 5-(4-Chlorophenyl)-3,4-dihydroquinazolin-2-amine Hydrobromide]
inhibition at 1 µM [1, 2]: -9 ± 2% | inhibition at 10 µM [1, 3]: 0% | melting point: 196 to 197 °C

Br.NC1=Nc2cccc(-c3cccc(Cl)c3)c2CN1 [Compound 37d, 5-(3-Chlorophenyl)-3,4-dihydroquinazolin-2-amine Hydrobromide]
inhibition at 1 µM [1, 2]: -5 ± 4% | inhibition at 10 µM [1, 3]: 10 ± 7% | melting point: 228 to 230 °C

N=C(N)Nc1ccc(-c2ccccc2)cn1 [Compound 12, 5-phenyl pyridinylguanidine]
inhibition at 1 µM [1, 2]: -10 ± 2% | inhibition at 10 µM [1, 3]: -11 ± 1% | MSK1 inhibitory activity (in words) [1]: inactive

Br.COc1ccccc1-c1cccc2[nH]c(N)nc12 [Compound 49g, 4-(2-Methoxyphenyl)-1H-benzo[d]imidazol-2-amine Hydrobromide]
inhibition at 1 µM [1, 2]: -3 ± 5% | inhibition at 10 µM [1, 3]: 39 ± 7% | melting point: 61 to 66 °C

Nc1nc2c(-c3ccccc3Cl)cccc2n1CCCNC(=O)c1ccccc1 [Compound 74c]
inhibition at 1 µM [1, 2]: -4 ± 2% | inhibition at 10 µM [1, 3]: 37 ± 5%

N=C(N)Nc1cccc(-c2ccncc2)n1 [Compound 1r, 1-[6-(Pyridin-4-yl)pyridin-2-yl] guanidiniumtrifluoroacetate]
inhibition at 10 µM [1, 3]: 18 ± 2%

N=C(N)Nc1cccc(-c2ccoc2)n1.O=C(O)C(F)(F)F [Compound 1g, 1-[6-(Furan-3-yl)pyridin-2-yl] guanidinium trifluoroacetate]
inhibition at 10 µM [1, 3]: 33 ± 8% | IC50 [1, 4]: > 30 µM | melting point: 219 to 221 °C

N=C(N)Nc1cccc(-c2cccnc2)n1 [Compound 1s, 1-[6-(Pyridin-3-yl)pyridin-2-yl] guanidinium trifluoroacetate]
inhibition at 10 µM [1, 3]: 70 ± 7% | IC50 [1, 4]: 5.8 ± 0.6 µM

N=C(N)Nc1cccc(-c2ccc(Cl)cc2)n1 [Compound 1b]
inhibition at 1 µM [1, 2]: -4 ± 5% | inhibition at 10 µM [1, 3]: 23 ± 1% | MSK1 inhibitory activity (in words) [1]: inactive

N=C(N)Nc1cccc(-c2ccc(Cl)cc2Cl)n1 (as salt: trifluoroacetate) [Compound 1p, 1-[6-(2,4-Dichlorophenyl)pyridin-2-yl] guanidiniumtrifluoroacetate]
melting point: 196 to 197 °C

N=C(N)Nc1cccc(-c2ccc(Cl)cc2Cl)n1 [Compound 1p, 1-[6-(2,4-Dichlorophenyl)pyridin-2-yl] guanidiniumtrifluoroacetate]
inhibition at 1 µM [1, 2]: 2 ± 2% | inhibition at 10 µM [1, 3]: 31 ± 7% | IC50 [1, 4]: > 30 µM

O=c1[nH]c2cccc(-c3ccccc3Cl)c2[nH]1 [Compound 64]
inhibition at 1 µM [1, 2]: -18 ± 5% | inhibition at 10 µM [1, 3]: 0% | MSK1 inhibitory activity (in words) [1]: inactivity

N=C(N)Nc1cccc(N2CCCCC2)n1 (as salt: salt) [Compound 31, 2-guanidino-6-piperidinopyridine]
melting point: 196 to 197 °C

Nc1nc2c(-c3ccccc3Cl)cccc2n1CCCCc1ccccc1 [Compound 74d]
inhibition at 1 µM [1, 2]: 1 ± 3% | inhibition at 10 µM [1, 3]: 5 ± 3%

N=C(N)Nc1cccc(Cc2ccccc2)n1 (as salt: trifluoroacetate) [Compound 17, 1-(6-Benzylpyridin-2-yl) guanidiniumtrifluoroacetate]
melting point: 161 to 162 °C

N=C(N)Nc1cccc(CCc2ccccc2)n1 [Compound 24]
inhibition at 1 µM [1, 2]: -4 ± 1% | inhibition at 10 µM [1, 3]: -8 ± 1% | MSK1 inhibitory activity (in words) [1]: inactive

Nc1nc2c(-c3ccccc3Cl)cccc2s1 [Compound 67]
inhibition at 1 µM [1, 2]: -28 ± 7% | inhibition at 10 µM [1, 3]: 4 ± 14% | MSK1 inhibitory activity (in words) [1]: inactivity

N=C(N)Nc1cccc(-c2ccccc2F)n1 (as salt: trifluoroacetate) [Compound 1j, 1-[6-(2-Fluorophenyl)pyridin-2-yl] guanidiniumtrifluoroacetate]
melting point: 199 to 200 °C

N=C(N)Nc1cccc(-c2cccc(Cl)c2)n1 [Compound 1e]
inhibition at 1 µM [1, 2]: 0% | inhibition at 10 µM [1, 3]: 45 ± 5% | IC50 [1, 4]: 9.7 ± 1 µM

Cc1ccccc1-c1cccc(NC(=N)N)n1 [Compound 1l, 1-[6-(2-Methylphenyl)pyridin-2-yl] guanidiniumtrifluoroacetate]
inhibition at 1 µM [1, 2]: 4 ± 8% | inhibition at 10 µM [1, 3]: 48 ± 15% | IC50 [1, 4]: 3.5 ± 0.3 µM

N=C(N)Nc1ncccc1-c1ccccc1 [Compound 14]
inhibition at 1 µM [1, 2]: 1 ± 5% | inhibition at 10 µM [1, 3]: 11 ± 5% | MSK1 inhibitory activity (in words) [1]: inactive

N=C(N)Nc1cccc(N2CCCCC2)n1 [Compound 31, 2-guanidino-6-piperidinopyridine]
inhibition at 10 µM [1, 3]: 16 ± 4% | MSK1 inhibitory activity (in words) [1]: totally inactive

NC1=Nc2ccc(-c3ccccc3)cc2CN1 [Compound 43]
inhibition at 1 µM [1, 2]: 7 ± 9% | inhibition at 10 µM [1, 3]: 9 ± 6%

Nc1nc2cc(-c3ccccc3)ccc2[nH]1 [Compound 50]
inhibition at 1 µM [1, 2]: -7 ± 5% | inhibition at 10 µM [1, 3]: 4 ± 4%

COc1ccccc1-c1cccc(NC(=N)N)n1 [Compound 1n]
inhibition at 1 µM [1, 2]: 16 ± 3% | inhibition at 10 µM [1, 3]: 66 ± 12% | IC50 [1, 4]: 2.3 ± 0.3 µM

Cc1ccccc1-c1cccc(NC(=N)N)n1 (as salt: trifluoroacetate) [Compound 1l, 1-[6-(2-Methylphenyl)pyridin-2-yl] guanidiniumtrifluoroacetate]
melting point: 168 to 169 °C

Nc1nc2c(-c3cccc(Cl)c3Cl)cccc2[nH]1 [Compound 49e, 4-(2,3-Dichlorophenyl)-1H-benzo[d]imidazol-2-amine Hydrobromide]
inhibition at 1 µM [1, 2]: 20 ± 3% | inhibition at 10 µM [1, 3]: 75 ± 8% | IC50 [1, 4]: 3.2 ± 0.2 µM

Nc1nc2c(-c3ccccc3Cl)cccc2n1CCO [Compound 74b]
inhibition at 1 µM [1, 2]: -2 ± 4% | inhibition at 10 µM [1, 3]: 49 ± 13%

N=C(N)Nc1cccc(-c2cc(Cl)ccc2Cl)n1 (as salt: trifluoroacetate) [Compound 1q, 1-[6-(2,5-Dichlorophenyl)pyridin-2-yl] guanidiniumtrifluoroacetate]
melting point: 151 to 152 °C

N=C(N)Nc1cccc(-c2cccc(C(F)(F)F)c2Cl)n1 [Compound 1i, 1-[6-(2-chloro-3-trifluoromethylphenyl)pyridin-2-yl] guanidinium trifluoroacetate]
inhibition at 1 µM [1, 2]: 10 ± 5% | inhibition at 10 µM [1, 3]: 62 ± 15% | IC50 [1, 4]: 8.6 ± 0.9 µM

N=C(N)Nc1cc(-c2ccccc2)ccn1 [Compound 13]
inhibition at 1 µM [1, 2]: -4 ± 1% | inhibition at 10 µM [1, 3]: 5 ± 1% | MSK1 inhibitory activity (in words) [1]: inactive

COc1cccc(-c2cccc(NC(=N)N)n2)c1 [Compound 1f]
inhibition at 1 µM [1, 2]: -7 ± 4% | inhibition at 10 µM [1, 3]: 16 ± 4% | MSK1 inhibitory activity (in words) [1]: inactive

NC(=S)Nc1cccc(-c2ccccc2)n1 [Compound 33, 1(6-phenylpyridin-2-yl)thiourea]
inhibition at 1 µM [1, 2]: 2 ± 10% | inhibition at 10 µM [1, 3]: 5 ± 3% | MSK1 inhibitory activity (in words) [1]: inactive

N=C(N)Nc1cccc(-c2ccccc2Cl)n1 [Compound 1k]
inhibition at 1 µM [1, 2]: 62 ± 8% | inhibition at 10 µM [1, 3]: 95 ± 8% | IC50 [1, 4]: 0.6 ± 0.1 µM

N=C(N)Nc1cccc(-c2cccnc2Cl)n1 [Compound 1t, 1-(2′-Chloro-[2,3′-bipyridin]-6-yl) guanidiniumtrifluoroacetate]
IC50 [1, 5]: 12.6 ± 4 µM | inhibition at 10 µM [1]: 69 ± 11%

N=C(N)Nc1cccc(-c2ccncc2)n1 (as salt: trifluoroacetate) [Compound 1r, 1-[6-(Pyridin-4-yl)pyridin-2-yl] guanidiniumtrifluoroacetate]
melting point: 208 to 209 °C

Nc1nc2cccc(-c3ccccc3Cl)c2n1CCc1ccccc1 [Compound 75]
inhibition at 1 µM [1, 2]: -6 ± 2% | inhibition at 10 µM [1, 3]: 1 ± 2%

Nc1nc2c(-c3ccccc3Cl)cccc2n1CCc1ccccc1 [Compound 74a]
inhibition at 1 µM [1, 2]: -6 ± 3% | inhibition at 10 µM [1, 3]: 41 ± 6%

N=C(N)Nc1ccc(CCc2ccccc2)cn1 [Compound 25]
inhibition at 1 µM [1, 2]: 2 ± 4% | inhibition at 10 µM [1, 3]: 6 ± 4%

N=C(N)Nc1cccc(Cc2ccccc2)n1 [Compound 17, 1-(6-Benzylpyridin-2-yl) guanidiniumtrifluoroacetate]
inhibition at 1 µM [1]: -2 ± 1% | inhibition at 10 µM [1]: -2 ± 3% | MSK1 inhibitory activity (in words) [1]: inactive

COc1ncccc1-c1cccc(NC(=N)N)n1 [Compound 1u, 1-(2′-Methoxy-[2,3′-bipyridin]-6-yl) guanidiniumtrifluoroacetate]
IC50 [1, 5]: > 30 µM | inhibition at 10 µM [1]: 42 ± 7% | MSK1 inhibitory activity (in words) [1]: abolished the inhibitory activity
